The target of this test is T1, human intracellular domain of KDR (VEGF Receptor-2) (Homo sapiens, UniProt P35968).
T1 construct: A fusion protein containing the intracellular domain (amino acids 793 to 1357) of the KDR and N-terminally tagged to GST; made in house; host or cells: Sf9 insect cells (baculovirus, pDEST20) for GST-KDR-cyt; E. coli BL21 (pGEX-4T-1) for GST-PLCγ
T1 sequence (P35968 794-1356 limits assumed): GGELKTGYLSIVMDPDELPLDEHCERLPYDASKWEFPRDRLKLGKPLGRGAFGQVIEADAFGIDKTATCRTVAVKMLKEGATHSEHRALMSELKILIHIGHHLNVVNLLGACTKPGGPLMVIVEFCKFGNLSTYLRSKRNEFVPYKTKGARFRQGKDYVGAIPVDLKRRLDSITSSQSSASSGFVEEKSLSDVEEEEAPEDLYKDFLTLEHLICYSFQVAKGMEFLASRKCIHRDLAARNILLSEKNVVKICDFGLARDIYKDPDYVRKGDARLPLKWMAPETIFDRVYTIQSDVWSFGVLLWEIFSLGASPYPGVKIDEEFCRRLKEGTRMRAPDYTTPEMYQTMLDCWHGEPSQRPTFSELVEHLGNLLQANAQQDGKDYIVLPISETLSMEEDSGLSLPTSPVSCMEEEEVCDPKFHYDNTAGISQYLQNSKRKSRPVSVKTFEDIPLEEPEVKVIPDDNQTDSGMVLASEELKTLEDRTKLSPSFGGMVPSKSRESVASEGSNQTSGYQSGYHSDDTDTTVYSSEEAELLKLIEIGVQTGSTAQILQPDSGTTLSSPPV
Nature of the test: In vitro KDR kinase assay. Type of test: biochemical. The note with it: IC50 as molar concentration; GST-KDR-cyt, substrate phospholipase Cγ, ATP 100 μM, 30 min room temperature, time-resolved fluorometry. As for the experimental part:
The intracellular domain of the KDR receptor was used in the in vitro KDR assay. This domain contains the tyrosine kinase domain of KDR, and when expressed in Sf9 cells, this domain is constitutively active i.e. the kinase domain is phosphorylated on tyrosine residues.
The compounds to be tested were dissolved in DMSO at 10 mM, stored at −20° C. and protected from light. The maximum concentration of DMSO in the in vitro assay was 0.1%. Control samples received the same concentration of solvent as the samples treated with the test compounds.
For the kinase assays, black 96 wells MaxiSorp microtiter plates were coated by an overnight incubation with 100 μl/well of a 2.5 μg/ml solution of phospholipase Cγ in TBS buffer (40 mM Tris-HCl, pH 7.4, 20 mM Mg(C2H3O2)2, 0.02% NaN3) at 4° C. The plates were washed 3 times with TBS buffer containing 0.1% Tween-20, and the residual binding sites were masked by incubation with 1% BSA in TBS buffer containing 0.1% Tween-20 for 1 h. The plates were washed again and the test compounds were added at final concentrations up to 10 μM, together with ATP at the final concentration of 100 μM in 50 μl TBS buffer/well. Then, 50 μl of the human intracellular domain of KDR (VEGF Receptor-2) finally diluted 3000-3500 fold were added and were incubated for 30 min at room temperature. The plates were washed and 100 μl of the Europium labelled PY-20 anti-phosphotyrosine antibody (Wallac, FIN) were incubated in each well at the concentration of approximately 114 ng/ml for 2 h. Then, the plates were washed and 100 μl of enhancer solution (Wallac, FIN) were incubated in each well for 5 min in the dark. The plates were read in a Victor 1420 multilabel counter, using a Europium protocol for time-resolved fluorometry (Wallac, FIN): excitation 340 nm, emission 615 nm, sample pulse cycle 400 μs. Fluorescence was measured for 400 μs between flashes after a delay time of 400 μs. The background measured in the absence of enzyme was subtracted from all samples. The molar concentrations that inhibited 50% of the maximal enzymatic activity (IC50) were calculated from the dose-response curve, by fitting a straight line between the two concentrations immediately above and below the 50% inhibition point (i.e. by solving the equation y=a+bx).
For orientation: IC50 means the concentration that gives 50% inhibition. `CO[C@@H]1CCC[C@H](CONC(=O)c2ccccc2NCc2ccncc2)C1` (stereo in doubt) [Compound 131, N-(3-Methoxy-cyclohexylmethoxy)-2-[(pyridin-4-ylmethyl)-amino]-benzamide] had an IC50 of 39.8 nM.

`O=C(NOCC1C[C@@H]2CC[C@H]1C2)c1ccccc1NCc1ccncc1` (stereo in doubt) [Compound 133, N-(Bicyclo[2.2.1]hept-2-ylmethoxy)-2-[(pyridin-4-ylmethyl)-amino]-benzamide] had an IC50 of 20 nM. As for `O=C(NOCc1ccccc1)c1ccccc1NCc1ccncc1` [Compound 1, N-Benzyloxy-2-[(pyridin-4-ylmethyl)-amino]-benzamide], the figure is 79.4 nM; as for `O=C(NOCc1ccc([N+](=O)[O-])cc1)c1ccccc1NCc1ccncc1` [Compound 2, N-(4-Nitro-benzyloxy)-2-[(pyridin-4-ylmethyl)-amino]-benzamide], 126 nM. For the compound `O=C(NOCc1ccccc1[N+](=O)[O-])c1ccccc1NCc1ccncc1` [Compound 3, N-(2-Nitro-benzyloxy)-2-[(pyridin-4-ylmethyl)-amino]-benzamide], 100 nM corresponded to half-maximal inhibition (IC50). `O=C(NOCc1cccc(C(F)(F)F)c1)c1ccccc1NCc1ccncc1` [Compound 4, 2-[(Pyridin-4-ylmethyl)-amino]-N-(3-trifluoromethyl-benzyloxy)-benzamide]: 200 nM corresponded to half-maximal inhibition (IC50).

The compound `O=C(NOCc1ccccc1C(F)(F)F)c1ccccc1NCc1ccncc1` [Compound 5, 2-[(Pyridin-4-ylmethyl)-amino]-N-(2-trifluoromethyl-benzyloxy)-benzamide] showed an IC50 of 31.6 nM. As for `O=C(NOCc1ccc(C(F)(F)F)cc1)c1ccccc1NCc1ccncc1` [Compound 6, N2-[(Pyridin-4-ylmethyl)-amino]-N-(4-trifluoromethyl-benzyloxy)-benzamide], the figure is 63.1 nM. As for `COc1ccc(CONC(=O)c2ccccc2NCc2ccncc2)cc1` [Compound 7, N-(4-Methoxy-benzyloxy)-2-[(pyridin-4-ylmethyl)-amino]-benzamide], the figure is 39.8 nM; as for `COc1cccc(CONC(=O)c2ccccc2NCc2ccncc2)c1` [Compound 8, N-(3-Methoxy-benzyloxy)-2-[(pyridin-4-ylmethyl)-amino]-benzamide], 31.6 nM.

As to `COc1cc(CONC(=O)c2ccccc2NCc2ccncc2)cc(OC)c1OC` [Compound 9, 2-[(pyridin-4-ylmethyl)-amino]-N-(3,4,5-trimethoxy-benzyloxy)-benzamide], the IC50 was 100 nM.

As to `O=C(NOCc1ccc(Cl)cc1)c1ccccc1NCc1ccncc1` [Compound 10, N-(4-Chloro-benzyloxy)-2-[(pyridin-4-ylmethyl)-amino]-benzamide], the IC50 is 50.1 nM. As for `O=C(NOCc1cccc(Cl)c1)c1ccccc1NCc1ccncc1` [Compound 11, N-(3-Chloro-benzyloxy)-2-[(pyridin-4-ylmethyl)-amino]-benzamide], the figure is 126 nM. `O=C(NOCc1ccccc1Cl)c1ccccc1NCc1ccncc1` [Compound 12, N-(2-Chloro-benzyloxy)-2-[(pyridin-4-ylmethyl)-amino]-benzamide] had a concentration for half-maximal inhibition (IC50) of 15.8 nM. To `O=C(NOCc1ccccc1Br)c1ccccc1NCc1ccncc1` [Compound 13, N-(2-Bromo-benzyloxy)-2-[(pyridin-4-ylmethyl)-amino]-benzamide] belongs 15.8 nM; to `O=C(NOCc1ccc(Cl)cc1Cl)c1ccccc1NCc1ccncc1` [Compound 14, N-(2,4-Dichloro-benzyloxy)-2-[(pyridin-4-ylmethyl)-amino]-benzamide], 6.31 nM; to `O=C(NOCc1ccc(Cl)c(Cl)c1)c1ccccc1NCc1ccncc1` [Compound 15, N-(3,4-Dichloro-benzyloxy)-2-[(pyridine-4-ylmethyl)-amino]-benzamide], 50.1 nM. As to `O=C(NOCc1c(Cl)cccc1Cl)c1ccccc1NCc1ccncc1` [Compound 16, N-(2,6-Dichloro-benzyloxy)-2-[(pyridin-4-ylmethyl)-amino]-benzamide], the IC50 was 25.1 nM. To `O=C(NOCc1cc(Cl)cc(Cl)c1)c1ccccc1NCc1ccncc1` [Compound 17, N-(3,5-Dichloro-benzyloxy)-2-[(pyridin-4-ylmethyl)-amino]-benzamide] belongs 63.1 nM.

Compound `O=C(NOCc1cccc(Cl)c1Cl)c1ccccc1NCc1ccncc1` [Compound 18, N-(2,3-Dichloro-benzyloxy)-2-[(pyridin-4-ylmethyl)-amino]-benzamide] showed an IC50 of 20 nM. To `O=C(NOCc1cc(Cl)ccc1Cl)c1ccccc1NCc1ccncc1` [Compound 19, N-(2,5-Dichloro-benzyloxy)-2-[(pyridin-4-ylmethyl)-amino]-benzamide] belongs 63.1 nM; to `O=C(NOCc1ccccc1F)c1ccccc1NCc1ccncc1` [Compound 20, N-(2-Fluoro-benzyloxy)-2-[(pyridin-4-ylmethyl)-amino]-benzamide], 31.6 nM. To `O=C(NOCc1cccc(F)c1)c1ccccc1NCc1ccncc1` [Compound 21, N-(3-Fluoro-benzyloxy)-2-[(pyridin-4-ylmethyl)-amino]-benzamide] belongs 25.1 nM; to `O=C(NOCc1ccc(F)cc1)c1ccccc1NCc1ccncc1` [Compound 22, N-(4-Fluoro-benzyloxy)-2-[(pyridin-4-ylmethyl)-amino]-benzamide], 25.1 nM; to `O=C(NOCc1c(F)cccc1Cl)c1ccccc1NCc1ccncc1` [Compound 23, N-(2-Chloro-6-fluoro-benzyloxy)-2-[(pyridin-4-ylmethyl)-amino]-benzamide], 25.1 nM.

Compound `O=C(NOCc1ccc(F)cc1Cl)c1ccccc1NCc1ccncc1` [Compound 24, N-(2-Chloro-4-fluoro-benzyloxy)-2-[(pyridin-4-ylmethyl)-amino]-benzamide] had a half-inhibitory concentration (IC50) of 20 nM. The compound `O=C(NOCc1cccc(Cl)c1F)c1ccccc1NCc1ccncc1` [Compound 25, N-(3-Chloro-2-fluoro-benzyloxy)-2-[(pyridin-4-ylmethyl)-amino]-benzamide] gave an IC50 of 50.1 nM. Compound `COC(=O)c1ccc(CONC(=O)c2ccccc2NCc2ccncc2)cc1` [Compound 26, 4-{2-[(pyridin-4-ylmethyl)-amino]-benzoylaminooxymethyl}-benzoic acid methyl ester] gave an IC50 of 79.4 nM. As for `N#Cc1ccc(CONC(=O)c2ccccc2NCc2ccncc2)cc1` [Compound 27, N-(4-cyano-benzyloxy)-2-[(pyridin-4-ylmethyl)-amino]-benzamide], the figure is 12.6 nM; as for `O=C(NOCc1ccc2ccccc2n1)c1ccccc1NCc1ccncc1` [Compound 28, 2-[(Pyridin-4-ylmethyl)-amino]-N-(quinolin-2-ylmethoxy)-benzamide], 100 nM. With `O=C(NOc1ccccc1)c1ccccc1NCc1ccncc1` [Compound 29, N-Phenoxy-2-[(pyridin-4-ylmethyl)-amino]-benzamide], the half-maximal inhibitory concentration (IC50) is 126 nM. To `O=C(NOCCOc1ccccc1)c1ccccc1NCc1ccncc1` [Compound 30, N-(2-Phenoxy-ethoxy)-2-[(pyridin-4-ylmethyl)-amino]-benzamide] belongs 1000 nM. With `O=C(NOCCCc1ccccc1)c1ccccc1NCc1ccncc1` [Compound 31, N-(3-Phenyl-propoxy)-2-[(pyridin-4-ylmethyl)-amino]-benzamide], the half-inhibitory concentration (IC50) is 126 nM. To `Cc1nc(CONC(=O)c2ccccc2NCc2ccncc2)cs1` [Compound 32, N-(2-methyl-thiazol-4 ylmethoxy)-2-[(pyridin-4-ylmethyl)-amino]-benzamide] belongs 20 nM; to `O=C(NOCc1ccccc1)c1cccnc1NCc1ccncc1` [Compound 33, N-Benzyloxy-2-2-[(pyridin-4-ylmethyl)-amino]-nicotinamide], 100 nM; to `COc1ccc(CONC(=O)c2cccnc2NCc2ccc(F)cc2)cc1` [Compound 34, 2-(4-Fluoro-benzylamino)-N-(4-methoxy-benzyloxy)-nicotinamide], 794 nM. `COc1ccc(CNc2ncccc2C(=O)NOCc2ccc(OC)cc2)cc1` [Compound 35, 2-(4-Methoxy-benzylamino)-N-(4-methoxy-benzyloxy)-nicotinamide] gave a concentration for half-maximal inhibition (IC50) of 1000 nM. For `Cc1cc(F)cc(C)c1CONC(=O)c1ccccc1NCc1ccncc1` [Compound 38, N-(4-Fluoro-2,6-dimethyl-benzyloxy)-2-[(pyridin-4-ylmethyl)-amino]-benzamide], the midpoint of inhibition, the IC50, lay at 10 nM.

Values taken from patent US8034811B2, “Hydroxamic acid esters and pharmaceutical use thereof” (Leo Pharma A/S, priority 2003, dated 2011).
